Source: patent US10165777B2, “Substituted pyrazolylpyrazole derivative and use of same as herbicide” (KYOYU AGRI CO., LTD., priority 2015, dated 2019)

How the values were obtained:
Assay type in all cases: in vivo
Echinochloa crus-galli = experiment: Paddy herbicidal activity test; conditions: irrigated pot, treated at 3.5 leaf stage of Echinochloa crus-galli, 30 days
Protocol: (§1) 1. Paddy Herbicidal Activity Test Rice paddy soil was filled into a 1/10000 are pot followed by the addition of suitable amounts of water and chemical fertilizer, kneading, seeding with Echinochloa crus-galli, Monochoria vaginalis and Scirpus juncoides and maintaining in an irrigated state at a water depth of 3 cm. Wettable powders of Target Compound (I) shown in Table 1 prepared in compliance with the preparation examples were diluted with a suitable amount of water, rice plants in the 2.0 leaf stage were transplanted during 3.5 leaf stage of Echinochloa crus-galli, and treated by dropping in chemical in the prescribed amount per 10 are using a pipette. After treating for 30 days in a glass greenhouse at an average atmospheric temperature of 30° C., the herbicidal efficacy thereof was investigated. Evaluation of herbicidal efficacy was carried out by comparing growth inhibition rate (%) with an untreated group, while evaluation of phytotoxicity was carried out by comparing growth inhibition rate (%) with the state of a complete eradication group, and were evaluated at 11 levels indicated below.

Monochoria vaginalis = experiment: Paddy herbicidal activity test; conditions: irrigated pot, 30 days
Protocol: as §1

Scirpus juncoides = experiment: Paddy herbicidal activity test; conditions: irrigated pot, 30 days
Protocol: as §1

Oryza sativa = experiment: Paddy herbicidal activity test, phytotoxicity to transplanted rice; conditions: rice transplanted in 2.0 leaf stage, 30 days
Protocol: as §1

Amaranthus retroflexus [1] = experiment: Farming soil treatment test; conditions: soil surface spray prior to weed growth, 30 days
Protocol: (§2) Field soil was filled into a 1/6000 are pot followed by seeding with Digitaria ciliaris, Chenopodium album and Amaranthus retroflexus and covering with soil. Wettable powders of compounds of formula (I) shown in Table 1 prepared in compliance with the preparation examples were diluted with water to the prescribed amount of chemical and uniformly sprayed onto each soil surface layer using 100 liters of sprayed water per 10 are prior to weed growth following seeding. After treating for 30 days in a glass greenhouse at an average atmospheric temperature of 30° C., the herbicidal efficacy thereof was investigated. Evaluation of herbicidal efficacy was carried out in the same manner as the above-mentioned Test Example 1.

Chenopodium album [2] = experiment: Farming soil treatment test; conditions: soil surface spray prior to weed growth, 30 days
Protocol: as §2

Digitaria ciliaris [3] = experiment: Farming soil treatment test; conditions: soil surface spray prior to weed growth, 30 days
Protocol: as §2

Amaranthus retroflexus [4] = experiment: Weed foliar treatment test (Test 3, 1.0 to 2.0 leaf stage); conditions: foliar spray at 1.0 to 2.0 leaf stage of Digitaria ciliaris, 3 weeks
Protocol: (§3) Soil was filled into a 1/6000 are pot followed by seeding with Digitaria ciliaris, Chenopodium album and Amaranthus retroflexus, covering with soil, and cultivating in a glass greenhouse at an average atmospheric temperature of 25° C. Wettable powders of Target Compound (I) shown in Table 1 prepared in compliance with the preparation examples were diluted with water to the prescribed amount of chemical and uniformly sprayed onto the weeds using 150 liters of sprayed water per 10 are when Digitaria ciliaris had grown to the 1.0 to 2.0 leaf stage. After treating for 3 weeks in a glass greenhouse at an average atmospheric temperature of 25° C., the herbicidal efficacy thereof was investigated. Evaluation of herbicidal efficacy was carried out in the same manner as the above-mentioned Test Example 1.

Chenopodium album [5] = experiment: as above; conditions: foliar spray at 1.0 to 2.0 leaf stage of Digitaria ciliaris, 3 weeks
Protocol: as §3

Digitaria ciliaris [6] = experiment: as above; conditions: foliar spray at 1.0 to 2.0 leaf stage of Digitaria ciliaris, 3 weeks
Protocol: as §3

Digitaria ciliaris [7] = experiment: Weed foliar treatment test (Test 4, 4.0 to 5.0 leaf stage); conditions: 10 g a.i./10 a; foliar spray at 4.0 to 5.0 leaf stage of Digitaria ciliaris (plant height 10 cm to 15 cm); 20 days
Protocol: (§4) Field soil was filled into a 1/4500 are pot followed by seeding with Digitaria ciliaris and Galinsoga parviflora, covering with soil and cultivating in a glass greenhouse at an average atmospheric temperature of 25° C.
(§5) Wettable powders of Target Compound (I) shown in Table 1 prepared in compliance with the preparation examples were diluted with water to the prescribed amount of chemical and uniformly sprayed onto the weeds using 100 liters of sprayed water per 10 are when Digitaria ciliaris had grown to the 4.0 to 5.0 leaf stage (plant height: 10 cm to 15 cm).
(§6) After treating for 20 days in a glass greenhouse at an average atmospheric temperature of 25° C., the herbicidal efficacy thereof was investigated.
(§7) Evaluation of herbicidal efficacy was carried out in the same manner as the above-mentioned Test Example 1.

Galinsoga parviflora = experiment: as above; conditions: 10 g a.i./10 a; foliar spray at 4.0 to 5.0 leaf stage of Digitaria ciliaris; 20 days
Protocol: as §4, §5, §6, §7

With `COC=Nc1c(C#N)cnn1-c1nn2c(c1Cl)CCCC2` [Compound 33] the “herbicidal efficacy, Echinochloa crus-galli” value (Echinochloa crus-galli; 1 g a.i./10 a) was 9 (90% to less than 100%), the “herbicidal efficacy, Echinochloa crus-galli” value (Echinochloa crus-galli; 5 g a.i./10 a) was 9 (90% to less than 100%) and the “herbicidal efficacy, Monochoria vaginalis” value (Monochoria vaginalis; 1 g a.i./10 a) was 9 (90% to less than 100%). For the same compound, the “herbicidal efficacy, Monochoria vaginalis” value (Monochoria vaginalis; 5 g a.i./10 a) was 10 (100%), the “herbicidal efficacy, Scirpus juncoides” value (Scirpus juncoides; 1 g a.i./10 a) was 9 (90% to less than 100%) and the “herbicidal efficacy, Scirpus juncoides” value (Scirpus juncoides; 5 g a.i./10 a) was 9 (90% to less than 100%). For the same compound, the “phytotoxicity, Oryza sativa” value (Oryza sativa; 1 g a.i./10 a) was 0 (0% to less than 10% (growth inhibition rate)), the “phytotoxicity, Oryza sativa” value (Oryza sativa; 5 g a.i./10 a) was 1 (10% to less than 20%) and the “herbicidal efficacy, Amaranthus retroflexus” value (Amaranthus retroflexus [1]; 5 g a.i./10 a) was 9 (90% to less than 100%). For the same compound, the “herbicidal efficacy, Amaranthus retroflexus” value (Amaranthus retroflexus [1]; 10 g a.i./10 a) was 9 (90% to less than 100%), the “herbicidal efficacy, Chenopodium album” value (Chenopodium album [2]; 5 g a.i./10 a) was 9 (90% to less than 100%) and the “herbicidal efficacy, Chenopodium album” value (Chenopodium album [2]; 10 g a.i./10 a) was 9 (90% to less than 100%). The “herbicidal efficacy, Digitaria ciliaris” value (Digitaria ciliaris [3]; 5 g a.i./10 a) was 9 (90% to less than 100%), the “herbicidal efficacy, Digitaria ciliaris” value (Digitaria ciliaris [3]; 10 g a.i./10 a) was 9 (90% to less than 100%) and the “herbicidal efficacy, Amaranthus retroflexus” value (Amaranthus retroflexus [4]; 5 g a.i./10 a) was 9 (90% to less than 100%). The “herbicidal efficacy, Amaranthus retroflexus” value (Amaranthus retroflexus [4]; 10 g a.i./10 a) was 9 (90% to less than 100%), the “herbicidal efficacy, Chenopodium album” value (Chenopodium album [5]; 5 g a.i./10 a) was 10 (100%) and the “herbicidal efficacy, Chenopodium album” value (Chenopodium album [5]; 10 g a.i./10 a) was 10 (100%). For the same compound, the “herbicidal efficacy, Digitaria ciliaris” value (Digitaria ciliaris [6]; 5 g a.i./10 a) was 9 (90% to less than 100%), the “herbicidal efficacy, Digitaria ciliaris” value (Digitaria ciliaris [6]; 10 g a.i./10 a) was 9 (90% to less than 100%) and the “herbicidal efficacy, Digitaria ciliaris” value (Digitaria ciliaris [7]) was 9 (90% to less than 100%). For the same compound, the “herbicidal efficacy, Galinsoga parviflora” value (Galinsoga parviflora) was 10 (100%).
